The results in this text go back to article PMC9000871, “Rhodamine 101 Conjugates of Triterpenoic Amides Are of Comparable Cytotoxicity as Their Rhodamine B Analogs” (Molecules, 2022).

The subject of one experiment is A375 (melanoma). Kind of experiment: SRB cytotoxicity assay, A375. The note with it: mean ± standard mean error. It is filed as cell-based, human. The text has this:
(§1) The cell lines were obtained from Department of Oncology (Martin-Luther-University Halle Wittenberg; they were bought from ATCC; A 375 (CRL-1619), HT29 (HTB-38), MCF7 (HTM-22), A2780 (HTP-77), FaDu (HTP-43), NIH 3T3 (CRL-1658), HEK-293 (CRL-1573)). Cultures were maintained as monolayers in RPMI 1640 medium with L-glutamine (Capricorn Scientific GmbH, Ebsdorfergrund, Germany) supplemented with 10% heat inactivated fetal bovine serum (Sigma-Aldrich Chemie GmbH, Steinheim, Germany) and penicillin/streptomycin (1%, Capricorn Scientific GmbH, Ebsdorfergrund, Germany) at 37 °C in a humidified atmosphere with 5% CO2. The cytotoxicity of the compounds was evaluated using the sulforhodamine-B (Kiton-Red S, ABCR) micro culture colorimetric assay using confluent cells in 96-well plates with the seeding of the cells on day 0 applying appropriate cell densities to prevent confluence of the cells during the period of the experiment. On day 1, the cells were treated with six different concentrations (1, 3, 7, 12, 20, and 30 μM); thereby, the final concentration of DMSO was always <0.5%, generally regarded as non-toxic to the cells. On day 4, the supernatant medium was discarded; the cells were fixed with 10% trichloroacetic acid. After another day at 4 °C, the cells were washed in a strip washer and dyed with the SRB solution (100 μL, 0.4% in 1% acetic acid) for about 20 min to be followed by washing of the plates (four times, 1% acetic acid) and air-drying overnight. Furthermore, tris base solution (200 μL, 10 mM) was added to each well and absorbance was measured at λ = 570 nm employing a reader (96 wells, Tecan Spectra, Crailsheim, Germany). The EC50 values were averaged from three independent experiments performed each in triplicate calculated from semi logarithmic dose response curves applying a non-linear four-parameter Hills-slope equation (GraphPad Prism5; variables top and bottom were set to 100 and 0, respectively).
In general terms: The SRB assay estimates cell density from bound dye.

The subject of experiment [1] is MCF-7 (breast adenocarcinoma). Kind of experiment: SRB cytotoxicity assay, MCF-7. It is filed as cell-based. Particulars: Homo sapiens, MCF7, 72 h of treatment, mean ± standard mean error.
Source text: as §1

The subject of experiment [2] is A2780 (ovarian carcinoma). Nature of the experiment: SRB cytotoxicity assay, A2780. It is filed as cell-based. The note with it: Homo sapiens, 72 h of treatment, mean ± standard mean error.
Source text: as §1

For experiment [3], the system named is FaDu (hypopharyngeal carcinoma). Nature of the experiment: SRB cytotoxicity assay, FaDu. It is filed as cell-based. Particulars: Homo sapiens, 72 h of treatment, mean ± standard mean error.
Source text: as §1

In experiment [4] the test system is NIH 3T3 (fibroblasts), non-malignant. Nature of the experiment: SRB cytotoxicity assay, NIH 3T3. Type of experiment: cell-based. Particulars: Mus musculus, mean ± standard mean error.
Source text: as §1

For experiment [5], the system named is HT29 (colon adenocarcinoma). Kind of experiment: SRB cytotoxicity assay, HT29. Type of experiment: cell-based, human. The note with it: Homo sapiens, mean ± standard mean error.
Source text: as §1

Experiment [6] has as its system human tumor cell lines (A375, HT29, MCF-7, A2780, FaDu). Kind of experiment: SRB cytotoxicity assay, statements across the cell line panel. It is filed as cell-based. The note with it: span over all cell lines tested, cut-off of the assay 30 µM.
Source text: as §1, with “On day 1, the cells were treated with six different concentrations (1, 3, 7, 12, 20, and 30 μM); thereby, the final concentration of DMSO was always <0.5%, generally regarded as non-toxic to the cells. On day 4, the supernatant medium was discarded; the cells were fixed with 10% trichloroacetic acid. After another day at 4 °C, the cells were washed in a strip washer and dyed with the SRB solution (100 μL, 0.4% in 1% acetic acid) for about 20 min to be followed by washing of the plates (four times, 1% acetic acid) and air-drying overnight.” left out

The test system of a further experiment is HeLa (cervical cancer). Nature of the experiment: SRB cytotoxicity assay, HeLa. Type of experiment: cell-based. Particulars: Homo sapiens, 72 h of treatment, mean ± standard mean error.
For experiment [7], the system named is HEK293 (human embryonic kidney), non-malignant. Kind of experiment: SRB cytotoxicity assay, HEK293. It is filed as cell-based. The note with it: 72 h of treatment, mean ± standard mean error.
Source text: as §1

Setting [8] is: Homo sapiens, A-375, 72 h, 72 h of treatment.
[9] abbreviates: NIH3T3, 72 h, 72 h of treatment.

Regarding `C=C(C)[C@@H]1CC[C@]2(C(=O)O)CC[C@]3(C)[C@H](CC[C@@H]4[C@@]5(C)CC[C@H](OC(C)=O)C(C)(C)[C@@H]5CC[C@]43C)[C@@H]12` [compound 1, 3β-Acetyloxy-lup-20(29)-en-28-oic Acid], the EC50 (as a rule, the midpoint of the concentration-response curve) in the experiment on A375 (melanoma) (72 h of treatment) is 19.2 ± 1.7 µM; with A375 (melanoma) (setting [8]) it was 21.3 µM; in experiment [1], 11 ± 0.5 µM; in [2] it was 18.3 ± 0.5 µM; in experiment [3] it was 7.2 ± 1.2 µM; in [4] (setting [9]), above 30 µM. In experiment [5] (HT-29, 72 h, 72 h of treatment), this compound came in with an EC50 of 21.3 ± 2 µM.

Consider `CC(=O)O[C@H]1CC[C@@]2(C)C(CC[C@]3(C)C2CC=C2C4CC(C)(C)CC[C@]4(C(=O)O)CC[C@]23C)C1(C)C` (stereo partly drawn) [compound 2, 3β-Acetyloxy-olean-12-en-oic Acid], for which the EC50 in the experiment on A375 (melanoma) (Homo sapiens, A-375, 72 h of treatment) turned out to be 13 ± 1.1 µM; in experiment [1], 12.9 ± 1.9 µM; in [2], 9.4 ± 0.5 µM; in experiment [3], 11.8 ± 0.9 µM; in experiment [4] (NIH3T3, 72 h of treatment) it was 17.5 ± 1.5 µM; in experiment [5] (HT-29, 72 h of treatment), 20.5 ± 1.7 µM.

On to `CC(=O)O[C@H]1CC[C@@]2(C)C(CC[C@]3(C)C2CC=C2C4[C@@H](C)[C@H](C)CC[C@]4(C(=O)O)CC[C@]23C)C1(C)C` (stereo partly drawn) [compound 3, 3β-Acetyloxy-urs-12-en-oic Acid], for which the EC50 was found to be 11.4 ± 1.4 µM with A375 (melanoma) (setting [8]); 12.1 ± 1.2 µM in experiment [1]; 8.3 ± 0.9 µM in experiment [2]; 10.7 ± 0.8 µM in experiment [3]; 16.4 ± 1.7 µM in [4] (setting [9]); 17.3 ± 1.5 µM in experiment [5] (HT-29, 72 h, 72 h of treatment).

As for `CC(=O)O[C@H]1CC[C@@]2(C)C(CC[C@]3(C)C2CCC2C4[C@H](C(C)=O)CC[C@]4(C(=O)O)CC[C@]23C)C1(C)C` (stereo partly drawn) [compound 4, 3β-Acetyloxy-20-oxo-30-norlupan-28-oic Acid], the 50% effective concentration (EC50) in the experiment with A375 (melanoma) (setting [8]) is above 30 µM; in experiment [1], above 30 µM; in [2], above 30 µM; in experiment [3], above 30 µM; in experiment [4] (setting [9]), above 30 µM; in experiment [5] (HT-29, 72 h, 72 h of treatment), above 30 µM. Also, in experiment [6], the “EC50 values across the cell lines” value is recorded as “not cytotoxic at all within the limits of the assay”.

For `CC(=O)O[C@H]1CC[C@@]2(C)C(CC[C@]3(C)C2CC=C2C4CC(C)(C)CC[C@]4(C(=O)N4CCCN(C(=O)c5ccccc5C5=c6cc7c8c(c6Oc6c5cc5c9c6CCCN9CCC5)CCC[N+]=8CCC7)CC4)CC[C@]23C)C1(C)C` (some centres unmarked) [compound 26], the EC50 in the experiment on A375 (melanoma) (setting [8]) was found to be 0.07 ± 0.01 µM; in experiment [1], 0.12 ± 0.03 µM; in [2], 0.07 ± 0.03 µM; with HeLa (cervical cancer) it was 0.1 ± 0.05 µM; in experiment [7], 0.05 ± 0.01 µM; in [4] (setting [9]), 0.26 ± 0.05 µM. The compound further registered an EC50 in [5] (HT-29, 72 h, 72 h of treatment) of 0.13 ± 0.03 µM.

Turning to `CC(=O)O[C@H]1CC[C@@]2(C)C(CC[C@]3(C)C2CC=C2C4[C@@H](C)[C@H](C)CC[C@]4(C(=O)N4CCCN(C(=O)c5ccccc5C5=c6cc7c8c(c6Oc6c5cc5c9c6CCCN9CCC5)CCC[N+]=8CCC7)CC4)CC[C@]23C)C1(C)C` (some centres unmarked) [compound 27], the EC50 was 0.06 ± 0.04 µM in the experiment with A375 (melanoma) (setting [8]); 0.08 ± 0.03 µM in experiment [1]; 0.05 ± 0.02 µM in experiment [2]; 0.09 ± 0.06 µM with HeLa (cervical cancer); 0.04 ± 0.01 µM in experiment [7]; 0.24 ± 0.03 µM in experiment [4] (setting [9]). Besides, a half-maximal response in [5] (HT-29, 72 h, 72 h of treatment) (EC50) required 0.08 ± 0.02 µM.

With `CC(=O)O[C@H]1CC[C@@]2(C)C(CC[C@]3(C)C2CCC2C4[C@H](C(C)=O)CC[C@]4(C(=O)N4CCCN(C(=O)c5ccccc5C5=c6cc7c8c(c6Oc6c5cc5c9c6CCCN9CCC5)CCC[N+]=8CCC7)CC4)CC[C@]23C)C1(C)C` (some centres unmarked) [compound 28], the EC50 in the experiment on A375 (melanoma) (setting [8]) worked out at 0.2 ± 0.03 µM; in experiment [1], 0.2 ± 0.05 µM; in experiment [2], 0.17 ± 0.04 µM; with HeLa (cervical cancer), 0.31 ± 0.15 µM; in experiment [7], 0.12 ± 0.03 µM; in experiment [4] (setting [9]), 0.39 ± 0.05 µM. The EC50 in experiment [5] (HT-29, 72 h, 72 h of treatment) is 0.35 ± 0.05 µM.
